Data taken from patent publication US20150272939A1, “Identification of Small Molecule Inhibitors of Jumonji AT-Rich Interactive Domain 1A (JARID1A) and 1B (JARID1B) Histone Demethylase” (Yale University, priority 2012, published 2015).
Counter-ions that a name gives are not always drawn. Like-named read-outs stand apart in the source and are kept apart here.

Assays:
[1] = molecular target: T1, JARID1B (Homo sapiens, UniProt Q9UGL1); assay: FLAG-JARID1B histone demethylase assay with AlphaScreen detection (HTS and dose response); assay type: biochemical; conditions: for Assay − Artifact Signal (percent): assay signal minus artifact signal; for inhibition at 20 µM / Inhibitory effect (percent): high-throughput screen, compound 20 μM; for inhibition at 20 µM: read-out: Inhibitory effect (percent); for Assay Signal (percent) / Validation result of HTS active: effect of the compound in the JARID1B AlphaScreen demethylase assay: validation of HTS actives; for Assay Signal (percent): effect of compound in JARID1B AlphaScreen assay; for Validation result of HTS active: effect of the compound in the JARID1B AlphaScreen demethylase assay: total signal before subtraction of artifact signal;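 as to Assay Signal (percent): compound tested at 20 µM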;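 as to Assay − Artifact Signal (percent): compound tested at 20 µM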;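 as to all read-outs here: FLAG-tagged JARID1B at 4 nM acting on a biotinylated H3K4me3 peptide, demethylation read by AlphaScreen luminescence, with hits checked against bio-H3K4me2 without enzyme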
T1 construct: The FLAG tagged full length JARID1B enzyme was expressed in Sf21 insect cells using FLAG-JARID1B baculoviruses; FLAG (N); made in house; host or cells: Sf21 insect cells (baculovirus)

[2] = AlphaScreen counterscreen against bio-H3K4me2 peptide in the absence of enzyme (artifact signal); conditions: for Artifact Signal (percent): effect of the compound when incubated with bio-H3K4me2 peptide (counterscreen, no enzyme); for Artifact signal: effect of the compound when it is incubated with bio-H3K4me2 peptide: counterscreen, no enzyme;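 as to all read-outs here: counterscreen run without enzyme against bio-H3K4me2 peptide to remove false positive hits from the JARID1 demethylase AlphaScreen screen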
[3] = standard demethylase conditions (10 μM α-KG, 50 μM Fe (II))
[4] = IDs marked *: additional hits under reaction condition with 1 mM α-KG

T1 sequence (Q9UGL1 whole entry): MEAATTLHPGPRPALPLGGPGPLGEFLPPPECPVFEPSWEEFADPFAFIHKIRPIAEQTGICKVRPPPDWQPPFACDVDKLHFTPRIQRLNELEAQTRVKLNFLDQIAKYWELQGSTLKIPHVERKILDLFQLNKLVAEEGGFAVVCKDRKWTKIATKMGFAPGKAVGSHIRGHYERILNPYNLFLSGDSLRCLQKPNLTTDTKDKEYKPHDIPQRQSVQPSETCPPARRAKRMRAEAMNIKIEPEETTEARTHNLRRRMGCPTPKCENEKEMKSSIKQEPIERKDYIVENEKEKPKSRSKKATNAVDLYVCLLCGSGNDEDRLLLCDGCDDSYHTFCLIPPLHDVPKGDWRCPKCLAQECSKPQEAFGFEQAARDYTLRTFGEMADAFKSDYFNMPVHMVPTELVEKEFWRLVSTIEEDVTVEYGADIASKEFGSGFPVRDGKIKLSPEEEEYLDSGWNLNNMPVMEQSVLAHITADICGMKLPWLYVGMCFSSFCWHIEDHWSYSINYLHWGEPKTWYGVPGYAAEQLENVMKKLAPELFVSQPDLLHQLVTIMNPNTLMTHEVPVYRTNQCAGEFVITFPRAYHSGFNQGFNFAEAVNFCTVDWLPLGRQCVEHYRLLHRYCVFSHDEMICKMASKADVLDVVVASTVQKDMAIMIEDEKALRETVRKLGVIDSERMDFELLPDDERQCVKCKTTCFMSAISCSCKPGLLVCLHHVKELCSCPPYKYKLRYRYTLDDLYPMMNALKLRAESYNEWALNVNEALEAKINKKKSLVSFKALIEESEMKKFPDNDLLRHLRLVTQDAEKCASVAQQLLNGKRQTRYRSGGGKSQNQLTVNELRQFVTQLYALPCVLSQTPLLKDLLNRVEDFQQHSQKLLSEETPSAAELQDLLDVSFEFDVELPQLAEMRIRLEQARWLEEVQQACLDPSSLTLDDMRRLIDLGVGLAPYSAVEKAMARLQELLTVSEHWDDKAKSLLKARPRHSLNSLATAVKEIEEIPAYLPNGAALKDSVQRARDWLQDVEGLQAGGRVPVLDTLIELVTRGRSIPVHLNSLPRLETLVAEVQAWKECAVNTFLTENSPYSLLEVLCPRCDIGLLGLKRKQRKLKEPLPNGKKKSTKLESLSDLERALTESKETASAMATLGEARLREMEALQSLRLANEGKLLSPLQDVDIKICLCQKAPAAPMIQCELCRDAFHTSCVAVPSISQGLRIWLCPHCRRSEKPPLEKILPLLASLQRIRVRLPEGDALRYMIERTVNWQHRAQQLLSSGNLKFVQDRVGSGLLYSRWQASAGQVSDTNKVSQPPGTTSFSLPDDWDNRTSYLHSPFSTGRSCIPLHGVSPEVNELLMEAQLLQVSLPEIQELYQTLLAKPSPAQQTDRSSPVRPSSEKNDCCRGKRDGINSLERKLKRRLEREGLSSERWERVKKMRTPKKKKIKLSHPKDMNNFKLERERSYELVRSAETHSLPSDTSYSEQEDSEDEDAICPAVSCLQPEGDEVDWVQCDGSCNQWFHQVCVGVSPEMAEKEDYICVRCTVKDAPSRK

Row | Compound | Assay − Artifact Signal (percent) [1] | inhibition at 20 µM [1, 3] | Assay Signal (percent) [1] | Artifact Signal (percent) [2] | Inhibitory effect (percent) [1, 3] | Validation result of HTS active: effect of the compound in the JARID1B AlphaScreen demethylase assay [1] | Artifact signal: effect of the compound when it is incubated with bio-H3K4me2 peptide [2] | inhibition at 20 µM [1, 4]
1 | N#CC(=Cc1cc(O)c(O)c(O)c1)C(N)=C(C#N)C#N (single isomer, unassigned) [YU154835, TYRPHOSTIN 51, reference compound] | 23.04% | 69.7% | 46.05% | 23.01% | – | – | – | –
2 | CC(C)NCC(O)c1ccc(O)c(O)c1 (stereo not drawn) [YU033874, ISOPROTERENOL HYDROCHLORIDE, reference compound] | 35.20% | 47.7% | 32.81% | −2.38% | – | – | – | –
3 | NNC(=O)c1ccncc1.Nc1ccc(C(=O)O)c(O)c1 [YU034557, PASINIAZID, reference compound] | 42.63% | – | 44.38% | 1.76% | 46.37% | – | – | –
4 | CSc1nc2cc(F)c(F)cc2n1C [YU145132] | – | 91.5% | – | – | – | −6.93 | −7.06 | –
5 | O=C(Cn1c(=O)oc2ccccc21)Nc1cccc([N+](=O)[O-])c1 [YU151591] | 14.61% | 35% | 16.26% | 1.65% | – | – | – | –
6 | O=C(O)CCCSCC(=O)Nc1ccccc1 [YU146590] | 10.85% | 60.2% | 13.35% | 2.50% | – | – | – | –
7 | C=NC(C(=O)N[C@H]1C(=O)N2C1SC(C)(C)C2C(=O)O)c1ccccc1 (stereo in doubt) [YU034263, METAMPICILLIN SODIUM, reference compound] | 24.14% | 95.6% | 24.27% | 0.13% | – | 3.14 | 0.44 | –
8 | COc1ccccc1OCc1nnc(S)n1C [YU146471] | 47.93% | 36.4% | 46.29% | −1.64% | – | – | – | –
9 | CC(=O)C(C)O[Si](C(C)C)(C(C)C)C(C)C (stereo not drawn) [YU035082] | 15.58% | – | 22.36% | 6.78% | – | – | – | 95.8%
10 | O=C1C=C2CC3(O)COc4c(ccc(O)c4O)C3=C2C=C1O (stereo not drawn) [YU155257, HEMATEIN, reference compound] | – | 105% | – | – | – | 104.73 | 99.07 | –
11 | Cc1c2c(=O)n(-c3nc4ccccc4s3)[nH]c2cc(=O)n1Cc1ccc(C(=O)O)cc1 [YU172089] | 11.36% | 92.3% | 22.52% | 11.16% | – | – | – | –
12 | C/C1=C2/[N-][C@H]([C@H](CC(N)=O)[C@@]2(C)CCC(=O)NC[C@@H](C)OP(=O)([O-])O[C@H]2[C@@H](O)[C@@H](n3cnc4cc(C)c(C)cc43)O[C@@H]2CO)[C@]2(C)N=C(/C(C)=C3N=C(/C=C4N=C1[C@@H](CCC(N)=O)C\4(C)C)[C@@H](CCC(N)=O)[C@]\3(C)CC(N)=O)[C@@H](CCC(N)=O)[C@]2(C)CC(N)=O.[Co] [YU034137, COBALAMINE, reference compound] | 28.34% | – | 27.06% | 1.27% | 63.90% | – | – | –
13 | O=c1c(O)c(-c2ccc(O)c(O)c2)oc2cc(O)ccc12 [YU155255, FISETIN, reference compound] | 22.49% | 45.8% | 91.26% | 68.78% | – | – | – | –
14 | CNC(C(=O)N(C)OC)C(C)C (stereo not drawn) [YU035100] | 11.75% | 88% | 13.14% | 1.39% | – | – | – | –
15 | CC(NC(=S)Nc1ccc2c(c1)OCO2)c1ccncc1 (stereo not drawn) [YU150371] | 8.09% | 31.8% | 6.16% | −1.93% | – | – | – | –
16 | C=CCn1c(S)nnc1CNC(=O)c1cccc(C)c1 [YU149014] | 49.04% | 35.7% | 47.61% | −1.43% | – | – | – | –
17 | O=C(NC1CCCCC1)c1ccc(NC(=O)c2ccccc2O)cc1 [YU154737] | 23.65% | 45% | 28.23% | 4.58% | – | – | – | –
18 | O=C(O)CSc1nc2cc(F)c(N3CCOCC3)cc2[nH]1 [YU151409] | – | 45.1% | – | – | – | 4.03 | −0.23 | –

Row | Compound | Assay − Artifact Signal (percent) [1] | inhibition at 20 µM [1, 3] | Assay Signal (percent) [1] | Artifact Signal (percent) [2] | Inhibitory effect (percent) [1, 3] | Validation result of HTS active: effect of the compound in the JARID1B AlphaScreen demethylase assay [1] | Artifact signal: effect of the compound when it is incubated with bio-H3K4me2 peptide [2] | inhibition at 20 µM [1, 4]
19 | O=c1c2c(-c3ccc(Cl)cc3)csc2nc2n1CCC2 [YU150472] | – | 32.1% | – | – | – | 4.75 | −2.52 | –
20 | CCOc1c(O)ccc(C=O)c1[N+](=O)[O-] [YU145037] | – | 66.1% | – | – | – | −4.02 | −1.09 | –
21 | C=CCN(CC=C)C(=S)Nc1sc(C)c(C)c1C(=O)OC [YU153003] | 16.80% | 65.6% | 23.56% | 6.76% | – | – | – | –
22 | Cc1cc(C(=O)Nc2c(C)n(C)n(-c3ccccc3)c2=O)c(C)o1 [YU153128] | 8.37% | 101% | 12.52% | 4.15% | – | – | – | –
23 | Cn1c(SCC=Cc2ccccc2)nnc1-c1cnccn1 (single isomer, unassigned) [YU151184] | – | 33.8% | – | – | – | 1.02 | −5.59 | –
24 | Cc1cc(-c2ccc(NC(=O)CCC(=O)O)c(C)c2)ccc1NC(=O)CCC(=O)O [YU104987] | – | 55.2% | – | – | – | 7.41 | 3.17 | –
25 | Oc1c(C(Nc2ccc(Cl)cc2)c2cccnc2)ccc2cccnc12 (stereo not drawn) [YU172165] | 14.24% | 42.3% | 43.01% | 28.76% | – | – | – | –
26 | CC(C)=CCc1c2c(c3occ(-c4ccc(O)c(O)c4)c(=O)c3c1O)C=CC(C)(C)O2 [YU155407, POMIFERIN, reference compound] | – | – | – | – | 91.09% | 16.14 | 10.52 | –
27 | CCOc1cc(CN)cc(Cl)c1OCC.Cl [YU147266] | 69.10% | 68.6% | 69.21% | 0.11% | – | – | – | –
28 | O=C1c2ccccc2C(=O)c2c(NCCc3ccc(O)cc3)ccc(NCCc3ccc(O)cc3)c21 [YU019467, BML-266, reference compound] | 20.91% | – | 76.09% | 55.18% | – | – | – | 42.1%
29 | Cc1cc(C(=O)Nc2cccc(Cn3cccn3)c2)cs1 [YU149922] | – | 56.7% | – | – | – | −6.24 | −8.78 | –
30 | Oc1cc(O)cc(/C=C/c2ccc(O)c(O)c2)c1 [YU154843, PICEATANNOL, reference compound] | 18.12% | 34% | 13.28% | −4.85% | – | – | – | –
31 | NCCc1cc(O)c(O)cc1O [YU033940, OXIDOPAMINE HYDROCHLORIDE, reference compound] | 19.88% | 41% | 36.84% | 16.96% | – | – | – | –
32 | C#CCOc1c(Cl)cc(C(=S)N2CCOCC2)cc1OC [YU153110] | 37.96% | 45.2% | 34.87% | −3.09% | – | – | – | –
33 | C=C1c2cccc(O)c2C(=O)C2=C(O)[C@]3(O)C(=O)C(C(N)=O)=C(O)[C@@H](N(C)C)[C@@H]3[C@@H](O)[C@H]12 [YU034167, METHACYCLINE HYDROCHLORIDE, reference compound] | – | 51.5% | – | – | – | 62.51 | 56.96 | –
34 | C=CCn1c(-c2ccc([N+](=O)[O-])cc2)n[nH]c1=S [YU147005] | 34.06% | 36.8% | 37.42% | 3.36% | – | – | – | –
35 | COc1ccc(CNn2c(C)nnc2S)cc1 [YU146438] | 42.15% | 36.9% | 50.33% | 8.17% | – | – | – | –
36 | O=C(O)c1cc(O)c2c(c1)[C@@H]([C@H]1c3cc(C(=O)O)cc(O)c3C(=O)c3c(O[C@H]4O[C@H](CO)[C@@H](O)[C@H](O)[C@H]4O)cccc31)c1cccc(O[C@H]3O[C@H](CO)[C@@H](O)[C@H](O)[C@H]3O)c1C2=O (stereo in doubt) [YU155201, SENNOSIDE A, reference compound] | – | 60% | – | – | – | 72.27 | 68.65 | –
